Assay results as given in patent publication US20240239799A1, “(S)-1-(5-((PYRIDIN-3-YL)THIO)PYRAZIN-2-YL)-4'H,6'H-SPIRO[PIPERIDINE-4,5'-PYRROLO [1,2-B]PYRAZOL]-4'-AMINE DERIVATIVES AND SIMILAR COMPOUNDS AS SHP2 INHIBITORS FOR THE TREATMENT OF E.G. CANCER” (C.N.C.C.S. S.C.A.R.L. COLLEZIONE NAZIONALE DEI COMPOSTI …, priority 2021, published 2024).
Like-named read-outs stand apart in the source and are kept apart here.

Tests used:
[1] = biological target: T1, SHP2 (Avi-G4SG4S-PTPN11(1-525)) (Homo sapiens, UniProt Q06124); assay: Binding kinetic assay by surface plasmon resonance (SPR); conditions: Biacore T200, single cycle kinetic, 1:1 Langmuir binding model; for koff: triplicate
T1 construct: (Avi-G4SG4S-PTPN11(1-525)); purchased Viva Biotech Ltd
T1 sequence (Q06124 1-525): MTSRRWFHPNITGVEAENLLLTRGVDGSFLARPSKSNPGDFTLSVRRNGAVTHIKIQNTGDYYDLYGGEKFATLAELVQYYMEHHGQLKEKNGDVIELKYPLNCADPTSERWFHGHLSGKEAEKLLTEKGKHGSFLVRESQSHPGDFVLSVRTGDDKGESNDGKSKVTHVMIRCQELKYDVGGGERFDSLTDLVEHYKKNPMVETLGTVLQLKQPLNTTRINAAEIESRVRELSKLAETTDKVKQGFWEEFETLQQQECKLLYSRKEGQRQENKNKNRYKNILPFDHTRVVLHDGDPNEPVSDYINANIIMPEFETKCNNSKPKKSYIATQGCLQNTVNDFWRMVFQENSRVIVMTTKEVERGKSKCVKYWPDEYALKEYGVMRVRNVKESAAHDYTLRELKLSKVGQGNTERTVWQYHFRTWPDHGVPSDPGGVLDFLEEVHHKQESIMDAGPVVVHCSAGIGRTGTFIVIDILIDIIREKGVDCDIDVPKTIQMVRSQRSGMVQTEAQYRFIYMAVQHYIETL
Method: A binding assay for measuring SHP2 inhibitors binding kinetic was developed using a Biacore T200 Instrument (Cytiva, Sweden). […] Data analysis was performed by Biacore T200 Evaluation software (Cytiva), and kinetic parameters were evaluated by a global fitting according to a 1:1 Langmuir binding model. Each molecule was tested in triplicate on separate flow channels.

[2] = system: phospho-ERK1/2 (Thr202/Tyr204) in KYSE-520 cells; assay: Phospho-ERK cellular assay (TR-FRET); format: cell-based; conditions: Homo sapiens, KYSE-520, 2 h, read-out: pERK IC50
Procedure, shortened: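 KYSE-520 cells plated overnight, then exposed to compound for 2 h at 37° C and lysed. Phospho-ERK1/2 (Thr202/Tyr204) detected by TR-FRET with Eu-cryptate and D2 antibodies after overnight incubation at rt. IC50 from four-parameter fit, normalised to DMSO (0%) and no-cell (100%) controls.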

[3] = biological target: T2, SHP-2 enzyme (Met1-Leu525) (Homo sapiens, UniProt Q06124); assay: SHP2 inhibition enzymatic assay (DiFMUP substrate, IRS1 peptide activation); format: biochemical; conditions: 0.5 nM SHP-2, 500 nM IRS1 peptide, 75 μM DiFMUP; read-out: SHP2wt - IC50
T2 construct: synthetized by Origene, Met1-Leu525, cat #TP750155; purchased Origene TP750155
T2 sequence (Q06124 1-525): T1 sequence (Q06124 1-525)

Structure (SMILES)	Residence time 1/koff SPR [1]	koff [1]	IC50 ([2]; KYSE-520 cells, 2 h at 37° C.)	IC50 [3]	IC50 [2]
Nc1nccc(Sc2cnc(N3CCC4(CC3)Cn3nccc3[C@H]4N)cn2)c1Cl [Example 6, (S)-1-(5-((2-amino-3-chloropyridin-4-yl)thio)pyrazin-2-yl)-4′H,6′H-spiro[piperidine-4,5′-pyrrolo[1,2-b]pyrazol]-4′-amine]	2740 s	0.000365 s⁻¹	< 100 nM	≤ 50 nM	
Nc1nccc(Sc2cnc(N3CCC4(CC3)Cn3ncc(Cl)c3[C@H]4N)cn2)c1Cl [Example 7, (S)-1-(5-((2-amino-3-chloropyridin-4-yl)thio)pyrazin-2-yl)-3′-chloro-4′H,6′H-spiro[piperidine-4,5′-pyrrolo[1,2-b]pyrazol]-4′-amine]	3185 s	0.000314 s⁻¹	< 100 nM	≤ 50 nM	
N[C@@H]1c2ccnn2CC12CCN(c1cnc(Sc3ccnc4c3OC[C@@H]3CCCN43)cn1)CC2 [Example 13, (S)-1-(5-(((S)-6a,7,8,9-tetrahydro-6H-pyrido[3,2-b]pyrrolo[1,2-d][1,4]oxazin-4-yl)thio)pyrazin-2-yl)-4′H,6′H-spiro[piperidine-4,5′-pyrrolo[1,2-b]pyrazol]-4′-amine]	3333 s	0.0003 s⁻¹	< 100 nM	≤ 50 nM	
Cn1cc2c(Cl)c(Sc3cnc(N4CCC5(CC4)Cn4nccc4[C@H]5N)n4ccnc34)ccc2n1 [Example 16, (S)-1-(8-((4-chloro-2-methyl-2H-indazol-5-yl)thio)imidazo[1,2-c]pyrimidin-5-yl)-4′H,6′H-spiro[piperidine-4,5′-pyrrolo[1,2-b]pyrazol]-4′-amine]	16026 s	6.24e-05 s⁻¹	< 100 nM	≤ 50 nM	
Cc1nc(N2CCC3(CC2)Cn2nccc2[C@H]3N)cc(=O)n1-c1cccc(Cl)c1Cl [Example 77, (S)-6-(4′-amino-4′H,6′H-spiro[piperidine-4,5′-pyrrolo[1,2-b]pyrazol]-1-yl)-3-(2,3-dichlorophenyl)-2-methylpyrimidin-4(3H)-one]			100 to 500 nM	≤ 50 nM	
N[C@@H]1c2ccnn2CC12CCN(c1cnc(Sc3ccnc4c(F)cccc34)cn1)CC2 [Example 79, (S)-1-(5-((8-fluoroquinolin-4-yl)thio)pyrazin-2-yl)-4′H,6′H-spiro[piperidine-4,5′-pyrrolo[1,2-b]pyrazol]-4′-amine]			< 100 nM	≤ 50 nM	
N[C@@H]1c2ccnn2CC12CCN(c1cnc(Sc3ccncc3Cl)cn1)CC2 [Example 80, (S)-1-(5-((3-chloropyridin-4-yl)thio)pyrazin-2-yl)-4′H,6′H-spiro[piperidine-4,5′-pyrrolo[1,2-b]pyrazol]-4′-amine]			< 100 nM	≤ 50 nM	
N[C@@H]1c2cccn2CC12CCN(c1cnc(Sc3ccnc(-n4cccn4)c3Cl)cn1)CC2 [Example 82, (S)-1-(5-((3-chloro-2-(1H-pyrazol-1-yl)pyridin-4-yl)thio)pyrazin-2-yl)-1′H,3′H-spiro[piperidine-4,2′-pyrrolizin]-1′-amine]			< 100 nM	≤ 50 nM	
N[C@@H]1c2ccnn2CC12CCN(c1cnc(Sc3cccc(Cl)c3Cl)cn1)CC2 [Example 83, (S)-1-(5-((2,3-dichlorophenyl)thio)pyrazin-2-yl)-4′H,6′H-spiro[piperidine-4,5′-pyrrolo[1,2-b]pyrazol]-4′-amine]			< 100 nM	≤ 50 nM	
N[C@@H]1c2ccnn2CC12CCN(c1nccn3c(-c4cccc(Cl)c4Cl)ncc13)CC2 [Example 85, (S)-1-(3-(2,3-dichlorophenyl)imidazo[1,5-a]pyrazin-8-yl)-4′H,6′H-spiro[piperidine-4,5′-pyrrolo[1,2-b]pyrazol]-4′-amine]			< 100 nM	≤ 50 nM	
Cc1nc(N2CCC3(CC2)Cn2cccc2[C@H]3N)cc(=O)n1-c1cccc(Cl)c1Cl [Example 86, (S)-6-(1′-amino-1′H,3′H-spiro[piperidine-4,2′-pyrrolizin]-1-yl)-3-(2,3-dichlorophenyl)-2-methylpyrimidin-4(3H)-one]				≤ 50 nM	100 to 500 nM

More lines, main results first:

Residence time 1/koff SPR [1]	koff [1]	IC50 ([2]; KYSE-520 cells, 2 h at 37° C.)	IC50 [3]	Structure (SMILES)	IC50 [2]
17007 s	5.88e-05 s⁻¹	< 100 nM	≤ 50 nM	Nc1nc(N2CCC3(CC2)Cn2ncc(Cl)c2[C@H]3N)cnc1Sc1ccnc(N)c1Cl [Example 5, (S)-1-(6-amino-5-((2-amino-3-chloropyridin-4-yl)thio)pyrazin-2-yl)-3′-chloro-4′H,6′H-spiro[piperidine-4,5′-pyrrolo[1,2-b]pyrazol]-4′-amine]	
8621 s	0.000116 s⁻¹	< 100 nM	≤ 50 nM	Nc1nccc(Sc2cnc(N3CCC4(CC3)Cn3ncc(Br)c3[C@H]4N)cn2)c1Cl [Example 8, (S)-1-(5-((2-amino-3-chloropyridin-4-yl)thio)pyrazin-2-yl)-3′-bromo-4′H,6′H-spiro[piperidine-4,5′-pyrrolo[1,2-b]pyrazol]-4′-amine]	
9615 s	0.000104 s⁻¹	< 100 nM	≤ 50 nM	Nc1nccc(Sc2cnc(N3CCC4(CC3)Cn3ncc(F)c3[C@H]4N)cn2)c1Cl [Example 9, (S)-1-(5-((2-amino-3-chloropyridin-4-yl)thio)pyrazin-2-yl)-3′-fluoro-4′H,6′H-spiro[piperidine-4,5′-pyrrolo[1,2-b]pyrazol]-4′-amine]	
29412 s	3.4e-05 s⁻¹	< 100 nM	≤ 50 nM	Cc1cc2n(n1)CC1(CCN(c3cnc(Sc4ccnc(N)c4Cl)cn3)CC1)[C@@H]2N [Example 11, (S)-1-(5-((2-amino-3-chloropyridin-4-yl)thio)pyrazin-2-yl)-2′-methyl-4′H,6′H-spiro[piperidine-4,5′-pyrrolo[1,2-b]pyrazol]-4′-amine]	
14535 s	6.88e-05 s⁻¹	< 100 nM	≤ 50 nM	Cc1nn2c(c1Cl)[C@@H](N)C1(CCN(c3cnc(Sc4ccnc(N)c4Cl)cn3)CC1)C2 [Example 14, (S)-1-(5-((2-amino-3-chloropyridin-4-yl)thio)pyrazin-2-yl)-3′-chloro-2′-methyl-4′H,6′H-spiro[piperidine-4,5′-pyrrolo[1,2-b]pyrazol]-4′-amine]	
37175 s	2.69e-05 s⁻¹	< 100 nM	≤ 50 nM	Nc1nccc(Sc2cnc(N3CCC4(CC3)Cn3ncc(Cl)c3[C@H]4N)n3ccnc23)c1Cl [Example 18, (S)-1-(8-((2-amino-3-chloropyridin-4-yl)thio)imidazo[1,2-c]pyrimidin-5-yl)-3′-chloro-4′H,6′H-spiro[piperidine-4,5′-pyrrolo[1,2-b]pyrazol]-4′-amine]	
5464 s	0.000183 s⁻¹	< 100 nM	≤ 50 nM	Nc1nccc(Sc2cnc(N3CCC4(CC3)Cn3nccc3[C@H]4N)c3cncn23)c1Cl [Example 19, (S)-1-(5-((2-amino-3-chloropyridin-4-yl)thio)imidazo[1,5-a]pyrazin-8-yl)-4′H,6′H-spiro[piperidine-4,5′-pyrrolo[1,2-b]pyrazol]-4′-amine]	
		< 100 nM	≤ 50 nM	Cn1c(N2CCC3(CC2)Cn2nccc2[C@H]3N)ncc(Sc2ccnc(N)c2Cl)c1=O [Example 76, (S)-5-((2-amino-3-chloropyridin-4-yl)thio)-2-(4′-amino-4′H,6′H-spiro[piperidine-4,5′-pyrrolo[1,2-b]pyrazol]-1-yl)-3-methylpyrimidin-4(3H)-one]	
		100 to 500 nM	≤ 50 nM	Cc1nc(N2CCC3(CC2)Cn2nccc2[C@H]3N)c(Cl)c(=O)n1-c1cccc(Cl)c1Cl [Example 78, (S)-6-(4′-amino-4′H,6′H-spiro[piperidine-4,5′-pyrrolo[1,2-b]pyrazol]-1-yl)-5-chloro-3-(2,3-dichlorophenyl)-2-methylpyrimidin-4(3H)-one]	
		< 100 nM	≤ 50 nM	Cc1nccc(Sc2cnc(N3CCC4(CC3)Cn3nccc3[C@H]4N)cn2)c1F [Example 81, (S)-1-(5-((3-fluoro-2-methylpyridin-4-yl)thio)pyrazin-2-yl)-4′H,6′H-spiro[piperidine-4,5′-pyrrolo[1,2-b]pyrazol]-4′-amine]	
		< 100 nM	≤ 50 nM	N[C@@H]1c2ccnn2CC12CCN(c1ccc(Sc3cccc(Cl)c3Cl)nc1)CC2 [Example 84, (S)-1-(6-((2,3-dichlorophenyl)thio)pyridin-3-yl)-4′H,6′H-spiro[piperidine-4,5′-pyrrolo[1,2-b]pyrazol]-4′-amine]	
